Values quoted from earlier work, collected in patent US20080248136A1, “ACUTE AND CHRONIC HEARTBURN COMPOSITION AND METHOD” (IOMEDIX DEVELOPMENT INTERNATIONAL SRL, priority 2006, published 2008).

Key:
[1] = in vivo
[2] = mice
[3] = test system: mitogen-activated protein kinase signaling; details: signaling stimulated by H. Pylori

O=C([O-])[O-].[Ca+2] [calcium carbonate]
esophageal pH [1]: significantly increased
gastric pH versus placebo [1]: remained at or below placebo levels

C=C(C)[C@H]1CC=C(C)CC1 [limonene]
antinociceptive activity [2]: has antinociceptive activity
participants achieving complete relief of symptoms (after 2 days of administration): 20%
severity of gastric and esophageal reflux disorder symptoms, as evaluated by subjects (daily or every other day administration, after 14 days): near complete relief of the symptoms
lasting alleviation of symptoms of gastric and esophageal reflux disorders (in certain cases): alleviated permanently

[Mg+2].[OH-].[OH-] [magnesium hydroxide]
esophageal pH [1]: significantly increased
gastric pH versus placebo [1]: increased gastric pH above placebo levels

C=C(C)[C@@H]1CC=C(C(=O)O)CC1 [perillic acid]
effect on mitogen-activated protein kinase signaling [3]: inhibits
